The nature of data set [1]: Solubility of library compounds in DMSO. Format: physicochemical. Particulars: stock concentration of 10 mM in DMSO. On the procedure: A pharmacophore model was generated based on the interactions of HR1 and HR2 domains in the calculated structural model of Mfn2 in the closed conformation. The key features included hydrophobic interactions involving Mfn2 HR1: Val372 and Met376, and aromatic interactions and hydrogen bonding involving Mfn2 HR1 His380. […] A library comprising ˜14 million commercially available compounds was prepared in silico and evaluated using PHASE to fit these criteria. Top ranked hits were clustered, and filtered based on pharmacological properties using Qikprop. The top 55 (see TABLE 4) commercially available small molecules conforming to the model were selected for functional screening and purchased in 1 mg aliquots. Each compound was dissolved to a stock concentration of 10 mM in DMSO and applied to Mfn2 null MEFs overnight at a final concentration of […]. Eleven of the library members were not soluble in DMSO at the required concentration. The 44 fully soluble compounds were screened in groups of 6 at a time for cytotoxicity (calcein AM/ethidium homodimer staining; ThermoFisher LIVE/DEAD Assay cat #L3224) and fusogenicity (increase in mitochondrial aspect ratio; MitoTracker Orange staining) compared to cells treated overnight with […] of the parent HR1 367-384 mitofusin agonist peptide (positive control) or vehicle (DMSO). Images were acquired by confocal microscopy. Each compound was scored for fusogenicity (see e.g., FIG. 24A) and % cell death (see e.g., FIG. 24B). Pharmacophore model fit generally correlated with actual fusogenic activity (Pearson correlation coefficient r=0.214; see e.g., FIG. 24A, inset; TABLE 4).

Data set [2] is described as follows: Plasma protein binding (equilibrium dialysis). In kind it is in vitro ADME. How it is done: (§1) Plasma protein binding was measured using equilibrium dialysis; % bound=(1-[free compound in dialysate]/[total compound in retentate])×100. Plasma stability of […] compound in clarified freeze-thawed plasma was assessed by LC-MS/MS of supernatants after protein precipitation; 120 min data are reported for studies including 0, 10, 30, 60, and 120 min. Microsome stability of […] compound in liver microsomes (0.5 mg/ml) after 0, 5, 10, 20, 30, 60 min. incubation was assessed by LC/MS/MS of reaction extracts.
In general terms: In equilibrium dialysis free small molecules cross a membrane that holds back macromolecules.

The subject of the next data set is Mfn2 null MEFs. In words: Mitochondrial elongation (aspect ratio) fusogenicity assay. Format: cell-based, mouse. The arrangement: % long compare to B: dose or concentration left out as unconfirmed. Particulars: for Aspect ratio (MEAN ± SEM) / % long compare to B: Mfn2 null MEFs; for Aspect ratio (MEAN ± SEM): overnight, treatment with 1 μM compound (footnote); for Fusogenicity Rank: rank order of aspect ratio among 44 soluble library compounds; for % long compare to B: mitochondrial elongation relative to Cpd B (B01 = 100), compound overnight as printed (FIG. 48).

Data set [3] in a line: Liver microsome stability. Format: in vitro ADME. On the procedure: as §1
On the technique in general: Liver microsomes are a subcellular fraction often used to study metabolism.

Consider 25 molecules from US10844023B2 (Washington University, priority 2017, dated 2020).

Turning to `Cc1cc(C)nc(SCC(C)Cn2c(N3CCC(C(N)=O)CC3)nc3c2c(=O)[nH]c(=O)n3C)n1` (centres unmarked) [1-(7-{3-[(4,6-dimethylpyrimidin-2-yl)sulfanyl]-2-methylpropyl}-3-methyl-2,6-dioxo-2,3,6,7-tetrahydro-1H-purin-8-yl)piperidine-4-carboxamide], the “Solubility in DMSO at required concentration” value (shortened to “Solubility in DMSO”) in data set [1] is recorded as “Insol- uble”.
In the case of `CCC(Sc1nc2cc(OC)c(OC)cc2c2nc(CCn3nc(C)cc3C)nn12)C(=O)Nc1ccc(F)cc1` (centres unmarked) [2-({2-[2-(3,5-dimethyl-1H-pyrazol-1-yl)ethyl]-8,9-dimethoxy-[1,2,4]triazolo[1,5-c]quinazolin-5-yl]sulfanyl)-N-(4-fluorophenyl)butanamide], in data set [1], the “Solubility in DMSO” value is reported as “Insol- uble”.
With `CC(=O)NC12CC3CC(C1)CC(C(=O)NCCSCc1ccc(C)cc1)(C3)C2` [3-acetamido-N-(2-{[(4-methylphenyl)methyl]sulfanyl}ethyl)adamantane-1-carboxamide], the “Solubility in DMSO” value in data set [1] is given as “Insol- uble”.
As to `Cc1ccc(C(=O)C(C)Sc2nnc3c(=O)n(-c4ccccc4)ccn23)cc1C` (centres unmarked) [3-{[1-(3,4-dimethylphenyl)-1-oxopropan-2-yl]sulfanyl}-7-phenyl-7H,8H-[1,2,4]triazolo[4,3-a]pyrazin-8-one], the “Solubility in DMSO” value in data set [1] is given as “Insol- uble”.
On to `Cc1ccc(C(=O)C(C)Sc2nnc3c(=O)n(-c4ccc(Br)cc4)ccn23)cc1C` (centres unmarked) [7-(4-bromophenyl)-3-{[1-(3,4-dimethylphenyl)-1-oxopropan-2-yl]sulfanyl}-7H,8H-[1,2,4]triazolo[4,3-a]pyrazin-8-one], for which the “Solubility in DMSO” value in data set [1] is reported as “Insol- uble”.
As for `COc1cc(Cl)c(C)cc1N1C(=O)[C@@H]2C[C@H]1CN2Cc1cccn1-c1ncccn1` [(1S,4S)-2-(4-chloro-2-methoxy-5-methylphenyl)-5-{[1-(pyrimidin-2-yl)-1H-pyrrol-2-yl]methyl}-2,5-diazabicyclo[2.2.1]heptan-3-one], the “Solubility in DMSO” value in data set [1] is “Insol- uble”.
As for `Cn1c(CCCNC(=O)NC2CCOCC2)nnc1C1CC1` [Mitolityn-6, 1-(3-(5-cyclopropyl-4-methyl-4H-1,2,4-triazol-3-yl)propyl)-3-(tetrahydro-2H-pyran-4-yl)urea], in data set [2], the “Plasma protein binding” value is recorded as “low plasma protein binding”. Further, the “Fusogenic activity” value in the data set on Mfn2 null MEFs (mitochondrial elongation / fusion) was “highest potency”. Further, in data set [3], the “Liver microsome stability” value was “stability in the liver microsome assay”.
With `Cc1ccc(CSCCNC(=O)C2CCN(c3ccc4nnc(C(F)(F)F)n4n3)CC2)cc1` [N-(2-{[(4-methylphenyl)methyl]sulfanyl}ethyl)-1-[3-(trifluoromethyl)-[1,2,4]triazolo[4,3-b]pyridazin-6-yl]piperidine-4-carboxamide], the “Solubility in DMSO” value in data set [1] is reported as “Insol- uble”.
Take `Cc1cc(NC(=O)C(C)SCC(=O)Nc2ccc(NC(C)c3ccccc3)cc2)no1` (centres unmarked) [N-(5-methyl-1,2-oxazol-3-yl)-2-{[({4-[(1-phenylethyl)amino]phenyl}carbamoyl)methyl]sulfanyl}propanamide]: in data set [1], the “Solubility in DMSO” value is reported as “Insol- uble”.
In the case of `CC(Sc1nc(C2CC2)nc2c1c(=O)[nH]c(=O)n2C1CC1)C(=O)NCC1CCCCC1` (centres unmarked) [N-(cyclohexylmethyl)-2-({2,8-dicyclopropyl-5,7-dioxo-5H,6H,7H,8H-pyrimido[4,5-d][1,3]diazin-4-yl}sulfanyl)propanamide], the “Solubility in DMSO” value in data set [1] is “Insol- uble”.
For `Cc1ccc(SC(C)C(=O)Nc2ccc(NS(=O)(=O)c3ccc4c(c3)OCCCO4)cc2)cc1` (centres unmarked) [N-[4-(3,4-dihydro-2H-1,5-benzodioxepine-7-sulfonamido)phenyl]-2-[(4-methylphenyl)sulfanyl]propanamide], the “Solubility in DMSO” value in data set [1] is on record as “Insol- uble”.
On to `CCc1nnc(SC(CC)C(=O)N(CC)c2cccc(C)c2)c2cc3occc3n12` (centres unmarked) [N-ethyl-2-({12-ethyl-5-oxa-1,10,11-triazatricyclo[6.4.0.0^2,6]dodeca-2(6),3,7,9,11-pentaen-9-yl}sulfanyl)-N-(3-methylphenyl)butanamide], for which the “Solubility in DMSO” value in data set [1] was “Insol- uble”.
On to `c1ccc(CSCCc2nc(C3CCOC3)no2)cc1` (centres unmarked) [drawing 238, 5-[2-(benzylsulfanyl)ethyl]-3-(oxolan-3-yl)-1,2,4-oxadiazole], for which, in the data set on Mfn2 null MEFs, the “Aspect ratio (MEAN ± SEM)” value is reported as 3.4 ± 0.6 and the “Fusogenicity Rank” value is recorded as 28.
On to `CC(Sc1ccc(Br)cc1)C(=O)Nc1ccc2c(c1)OCCO2` (centres unmarked) [drawing 239, 2-[(4-bromophenyl)sulfanyl]-N-(2,3-dihydro-1,4-benzodioxin-6-yl)propanamide], for which, in the data set with Mfn2 null MEFs, the “Aspect ratio (MEAN ± SEM)” value amounted to 3.2 ± 0.5 and the “Fusogenicity Rank” value worked out at 33.
Consider `Cc1ccc(C(=O)C(C)Sc2nnc3c(=O)n(-c4ccc(C)c(C)c4)ccn23)cc1C` (centres unmarked) [drawing 240, 7-(3,4-dimethylphenyl)-3-{[1-(3,4-dimethylphenyl)-1-oxopropan-2-yl]sulfanyl}-7H,8H-[1,2,4]triazolo[4,3-a]pyrazin-8-one], for which, in the data set with Mfn2 null MEFs, the “Aspect ratio (MEAN ± SEM)” value was determined as 3.9 ± 0.8 and the “Fusogenicity Rank” value worked out at 19.
Consider `O=C(NCCSCc1ccsc1)C1CC2CCCC(C1)C2=O` (centres unmarked) [drawing 241, 9-oxo-N-(2-{[(thiophen-3-yl)methyl]sulfanyl}ethyl)bicyclo[3.3.1]nonane-3-carboxamide], for which, in the data set on Mfn2 null MEFs, the “Aspect ratio (MEAN ± SEM)” value is 4.4 ± 0.6 and the “Fusogenicity Rank” value was 14.
Turning to `CC(Sc1nnc(N2CCOCC2)n1Cc1ccccc1)C(=O)Nc1ccc2c(c1)OCO2` (centres unmarked) [drawing 242, N-(2H-1,3-benzodioxol-5-yl)-2-{[4-benzyl-5-(morpholin-4-yl)-4H-1,2,4-triazol-3-yl]sulfanyl}propanamide], in the data set on Mfn2 null MEFs, the “Aspect ratio (MEAN ± SEM)” value was 2.5 ± 0.6 and the “Fusogenicity Rank” value came out at 43.
In the case of `Cc1ccc(N2C[C@@H]3CC[C@H](C2)N(Cc2ccccn2)C3=O)nn1` [drawing 245, (1S,5R)-3-(6-methylpyridazin-3-yl)-6-[(pyridin-2-yl)methyl]-3,6-diazabicyclo[3.2.2]nonan-7-one], in the data set on Mfn2 null MEFs, the “Aspect ratio (MEAN ± SEM)” value is listed as 3.0 ± 0.4 and the “Fusogenicity Rank” value turned out to be 36.
On the same counts, the results for `Cc1ccc(SC2CCN(Cc3cc4n(n3)CCNC4)CC2)cc1` [drawing 246, 4-[(4-methylphenyl)sulfanyl]-1-({4H,5H,6H,7H-pyrazolo[1,5-a]pyrazin-2-yl}methyl)piperidine] are 2.9 ± 0.2 and 39.
With `CC(/N=N/C(=N)SC1CC(=O)N(c2cccc(C(=O)O)c2)C1=O)c1ccccc1` (centres unmarked) [drawing 247, 3-(2,5-dioxo-3-{[(E)-N-[(1-phenylethyl)imino]carbamimidoyl]sulfanyl}pyrrolidin-1-yl)benzoic acid], in the data set on Mfn2 null MEFs, the “Aspect ratio (MEAN ± SEM)” value is listed as 3.3 ± 0.0 and the “Fusogenicity Rank” value is listed as 31.
As for `CCOc1ccccc1NC(=O)CSCc1cc(=O)c2ccc(C)c(C)c2[nH]1` [drawing 248, 2-{[(7,8-dimethyl-4-oxo-1,4-dihydroquinolin-2-yl)methyl]sulfanyl}-N-(2-ethoxyphenyl)acetamide], in the data set with Mfn2 null MEFs, the “Aspect ratio (MEAN ± SEM)” value was 3.7 ± 0.6 and the “Fusogenicity Rank” value came to 24.
On to `O=C(CSCC(=O)N1CCCc2ccccc21)Nc1ccccc1` [drawing 249, 2-{[2-oxo-2-(1,2,3,4-tetrahydroquinolin-1-yl)ethyl]sulfanyl}-N-phenylacetamide], for which, in the data set on Mfn2 null MEFs, the “Aspect ratio (MEAN ± SEM)” value came out at 2.4 ± 0.4 and the “Fusogenicity Rank” value is listed as 44.
Turning to `Cc1ccc(NC(=O)CC2SC(NC(c3ccc(C(C)C)cc3)c3c(O)[nH]c(=O)[nH]c3=O)=NC2=O)c(C)c1` (centres unmarked) [drawing 252, N-(2,4-dimethylphenyl)-2-(2-{[(6-hydroxy-2,4-dioxo-1,2,3,4-tetrahydropyrimidin-5-yl)[4-(propan-2-yl)phenyl]methyl]amino}-4-oxo-4,5-dihydro-1,3-thiazol-5-yl)acetamide], in the data set on Mfn2 null MEFs, the “Aspect ratio (MEAN ± SEM)” value amounted to 3.1 ± 0.3 and the “Fusogenicity Rank” value came out at 35.
With `O=C(NCCCCc1ccccc1)Nc1ccccc1` [pA, 3-phenyl-1-(4-phenylbutyl)urea], the “% long compare to B” value in the data set with Mfn2 null MEFs stood at 59%.
`NC(=O)c1c(NC(=O)CCCc2ccccc2)sc2c1CCC2` [pB, 2-(4-phenylbutanamido)-4H,5H,6H-cyclopenta[b]thiophene-3-carboxamide]: in the data set with Mfn2 null MEFs, the “% long compare to B” value stood at 6%.
